pIC50: −log10 of the molar value.

One assay deals with b-Raf (V600E) (Homo sapiens (Human), UniProt P15056, V600E). Conditions: read-out: b-Raf IC-50; AlphaScreen, 60 min pre-incubation, 3 hours reaction.
b-Raf (V600E), sequence (P15056 whole entry V600E): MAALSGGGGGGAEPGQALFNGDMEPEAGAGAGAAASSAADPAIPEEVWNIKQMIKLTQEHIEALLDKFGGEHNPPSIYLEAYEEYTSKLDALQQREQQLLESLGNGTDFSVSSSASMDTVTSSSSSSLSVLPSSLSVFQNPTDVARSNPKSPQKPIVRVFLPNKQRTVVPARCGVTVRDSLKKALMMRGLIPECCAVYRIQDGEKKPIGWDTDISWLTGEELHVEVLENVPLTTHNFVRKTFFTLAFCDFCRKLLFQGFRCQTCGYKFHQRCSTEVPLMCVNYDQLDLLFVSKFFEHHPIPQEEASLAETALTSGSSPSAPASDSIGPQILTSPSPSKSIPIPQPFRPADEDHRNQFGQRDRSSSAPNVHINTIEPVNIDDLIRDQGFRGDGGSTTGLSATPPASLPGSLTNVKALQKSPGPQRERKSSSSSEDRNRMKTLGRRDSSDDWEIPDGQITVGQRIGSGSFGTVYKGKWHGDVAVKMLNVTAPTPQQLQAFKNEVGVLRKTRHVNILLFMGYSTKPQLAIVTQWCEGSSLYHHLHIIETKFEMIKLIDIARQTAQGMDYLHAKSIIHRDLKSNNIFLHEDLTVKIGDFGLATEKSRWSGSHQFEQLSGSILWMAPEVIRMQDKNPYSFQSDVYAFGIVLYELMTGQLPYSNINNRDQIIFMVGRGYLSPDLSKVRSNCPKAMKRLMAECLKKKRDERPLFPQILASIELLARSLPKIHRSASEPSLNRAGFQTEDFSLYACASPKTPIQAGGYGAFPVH
Regarding `CCOc1nnc(-c2cc(NC(=O)c3ccnc(C(C)(C)O)c3)ccc2C)cc1N1CCOCC1` [Example 569, N-(3-(6-ethoxy-5-morpholinopyridazin-3-yl)-4-methylphenyl)-2-(2-hydroxypropan-2-yl)isonicotinamide], the pIC50 is 8.55.
`Cc1ccc(NC(=O)c2cccc(C(F)(F)F)c2)cc1-c1nc(N2CCOCC2)c2sccc2n1` [Example 829, N-(4-methyl-3-(4-morpholinothieno[3,2-d]pyrimidin-2-yl)phenyl)-3-(trifluoromethyl)benzamide]: the pIC50 was 9.70.
For the molecule `Cc1ccc(NC(=O)c2ccnc(S(C)(=O)=O)c2)cc1-c1cc(N2CCOCC2)n(C)c(=O)c1` [Example 474, N-(4-methyl-3-(1-methyl-6-morpholino-2-oxo-1,2-dihydropyridin-4-yl)phenyl)-2-(methylsulfonyl)isonicotinamide], the pIC50 is 8.66.
`Cc1ncc(NC(=O)c2cccc(C(F)(F)F)c2)cc1-c1cc(N2CCOCC2)nc(N2C(=O)OC[C@@H]2C)n1` [Example 781, (S)—N-(6-methyl-5-(2-(4-methyl-2-oxooxazolidin-3-yl)-6-morpholinopyrimidin-4-yl)pyridin-3-yl)-3-(trifluoromethyl)benzamide]: the pIC50 is 7.97.
On to `Cc1ncc(C(=O)Nc2cccc(C(F)F)c2)cc1-c1cc(N2CCOCC2)c(=O)n(C)c1` [Example 445, N-(3-(difluoromethyl)phenyl)-1′,2-dimethyl-5′-morpholino-6′-oxo-1′,6′-dihydro-[3,3′-bipyridine]-5-carboxamide], for which the pIC50 is 7.92.
With `Cc1ccc(NC(=O)c2ccnc(C3COC3)c2)cc1-c1cc(N2CCOCC2)c(=O)n(C)n1` [Example 648, N-(4-methyl-3-(1-methyl-5-morpholino-6-oxo-1,6-dihydropyridazin-3-yl)phenyl)-2-(oxetan-3-yl)isonicotinamide], the pIC50 was 8.35.
Consider `CCOc1nnc(-c2cc(NC(=O)c3ccnc(C(F)(F)CC)c3)cnc2C)cc1N1CCOCC1` [Example 617, 2-(1,1-difluoropropyl)-N-(5-(6-ethoxy-5-morpholinopyridazin-3-yl)-6-methylpyridin-3-yl)isonicotinamide], for which the pIC50 was 8.46.
Turning to `Cc1ccc(NC(=O)c2ccnc(C(C)(C)F)c2)cc1-c1cc(C2CCOCC2)c(=O)n(C)n1` [Example 676, 2-(2-fluoropropan-2-yl)-N-(4-methyl-3-(1-methyl-6-oxo-5-(tetrahydro-2H-pyran-4-yl)-1,6-dihydropyridazin-3-yl)phenyl)isonicotinamide], the pIC50 is 8.62.
As for `Cc1ccc(NC(=O)c2cc(C(F)(F)F)ccn2)cc1-c1cc(N2CCOCC2)c(OC(C)C)nn1` [Example 594, N-(3-(6-isopropoxy-5-morpholinopyridazin-3-yl)-4-methylphenyl)-4-(trifluoromethyl)picolinamide], the pIC50 is 9.10.
Regarding `Cc1ccc(NC(=O)c2ccnc(C(C)(C)F)c2)cc1-c1cc(N2CCOCC2)n(C)c(=O)c1` [Example 479, 2-(2-fluoropropan-2-yl)-N-(4-methyl-3-(1-methyl-6-morpholino-2-oxo-1,2-dihydropyridin-4-yl)phenyl)isonicotinamide], the pIC50 is 8.74.
For the molecule `COCCOc1nnc(-c2cc(NC(=O)c3ccnc(C(F)F)c3)ccc2C)cc1N1CCOCC1` [Example 598, 2-(difluoromethyl)-N-(3-(6-(2-methoxyethoxy)-5-morpholinopyridazin-3-yl)-4-methylphenyl)isonicotinamide], the pIC50 is 8.96.
Turning to `Cc1ccc(NC(=O)c2ccnc(C3(C#N)CC3)c2)cc1-c1cc(N2CCOCC2)n(C)c(=O)c1` [Example 480, 2-(1-cyanocyclopropyl)-N-(4-methyl-3-(1-methyl-6-morpholino-2-oxo-1,2-dihydropyridin-4-yl)phenyl)isonicotinamide], the pIC50 is 9.22.

The assay is the same for the next values; noted with them: read-out: b-Raf IC-50; AlphaScreen, 60 min pre-incubation, reaction 3 hours at room temperature.
For the molecule `Cc1ncc(NC(=O)c2ccnc(C(C)(F)F)c2)cc1-c1cnc(OC(C)C)c(N2CCOCC2)c1` [Example 952, 2-(1,1-difluoroethyl)-N-(6′-isopropoxy-2-methyl-5′-morpholino-[3,3′-bipyridin]-5-yl)isonicotinamide], the pIC50 was 8.70.
As for `Cc1ncc(NC(=O)c2cncc(C(F)(F)F)c2)cc1-c1cc(N2CCOCC2)c(OCC(F)F)nn1` [Example 917, N-(5-(6-(2,2-difluoroethoxy)-5-morpholinopyridazin-3-yl)-6-methylpyridin-3-yl)-5-(trifluoromethyl)nicotinamide], the pIC50 is 9.10.
On the same count and under the same terms, the result for `Cc1ccc(NC(=O)c2ccnc(C3CC3)c2)cc1-c1cnc(OCCO)c(N2CCOCC2)c1` [Example 999, 2-cyclopropyl-N-(3-(6-(2-hydroxyethoxy)-5-morpholinopyridin-3-yl)-4-methylphenyl)isonicotinamide] reads 9.04; that for `Cc1ccc(NC(=O)c2ccnc(C(F)F)c2)cc1-c1cc(N2CCOCC2)c2nccn2c1` [Example 850, 2-(difluoromethyl)-N-(4-methyl-3-(8-morpholinoimidazo[1,2-a]pyridin-6-yl)phenyl)isonicotinamide], 9.22.
Turning to `CCOc1cc(-c2cc(NC(=O)c3ccnc(C4CC4)c3)cnc2C)cc(N2CCOCC2)n1` [Example 1149, 2-cyclopropyl-N-(2′-ethoxy-2-methyl-6′-morpholino-[3,4′-bipyridin]-5-yl)isonicotinamide], the pIC50 was 8.50.
Consider `Cc1ncc(NC(=O)c2ccnc(C(C)(C)C#N)c2)cc1-c1cc(N2CCOCC2)nc(N2CCOCC2)c1` [Example 1123, 2-(2-cyanopropan-2-yl)-N-(2-methyl-2′,6′-dimorpholino-[3,4′-bipyridin]-5-yl)isonicotinamide], for which the pIC50 is 7.96.
In the case of `Cc1ccc(NC(=O)c2ccnc(C(C)(C)C#N)c2)cc1-c1cc(OCCO)nc(N2CCOCC2)c1` [Example 1161, 2-(2-cyanopropan-2-yl)-N-(3-(2-(2-hydroxyethoxy)-6-morpholinopyridin-4-yl)-4-methylphenyl)isonicotinamide], the pIC50 was 8.82.
Still for that read-out and setting: the result for `Cc1ccc(NC(=O)c2cccc(C(F)F)c2)cc1-c1cc(N2CCOCC2)nc(N2CCOCC2)c1` [Example 1116, 3-(difluoromethyl)-N-(3-(2,6-dimorpholinopyridin-4-yl)-4-methylphenyl)benzamide] reads 9.09.
Consider `Cc1ncc(NC(=O)c2ccnc(S(C)(=O)=O)c2)cc1-c1cc(N2CCOCC2)nc(N2CC(O)C2)c1` [Example 1090, N-(2′-(3-hydroxyazetidin-1-yl)-2-methyl-6′-morpholino-[3,4′-bipyridin]-5-yl)-2-(methylsulfonyl)isonicotinamide], for which the pIC50 was 7.29.
On the same count and under the same terms, the result for `Cc1ccc(NC(=O)c2ccnc(C(F)(F)F)c2)cc1-c1cc(-c2c(C)n[nH]c2C)nc(N2CCOCC2)c1` [Example 1127, N-(3-(2-(3,5-dimethyl-1H-pyrazol-4-yl)-6-morpholinopyridin-4-yl)-4-methylphenyl)-2-(trifluoromethyl)isonicotinamide] reads 8.83; that for `Cc1ccc(NC(=O)c2cccc(C(F)F)c2)cc1-c1cc(N2CCOCC2)nc(N2CC(O)C2)c1` [Example 1077, 3-(difluoromethyl)-N-(3-(2-(3-hydroxyazetidin-1-yl)-6-morpholinopyridin-4-yl)-4-methylphenyl)benzamide], 9.07; that for `Cc1ncc(NC(=O)c2ccnc(C(C)(F)F)c2)cc1-c1cc(N2CCOCC2)c(S(C)(=O)=O)nn1` [Example 920, 2-(1,1-difluoroethyl)-N-(6-methyl-5-(6-(methylsulfonyl)-5-morpholinopyridazin-3-yl)pyridin-3-yl)isonicotinamide], 8.05.

Staying with this assay, now noted: read-out: b-Raf IC-50; Table 2; AlphaScreen, 3 hours reaction.
`Cc1ncc(NC(=O)c2ccnc(C(F)(F)F)c2)cc1-c1cnc(Cl)c(N2CCOCC2)c1` [Example 291, N-(6′-chloro-2-methyl-5′-morpholino-[3,3′-bipyridin]-5-yl)-2-(trifluoromethyl)isonicotinamide]: the pIC50 was 8.64.
For the molecule `Cc1ncc(NC(=O)c2cccc(C(F)(F)F)c2)cc1-c1cnc(O[C@H]2CC[C@H](O)CC2)c(N2CCOCC2)c1` [Example 316, N-(6′-(((1r,4r)-4-hydroxycyclohexyl)oxy)-2-methyl-5′-morpholino-[3,3′-bipyridin]-5-yl)-3-(trifluoromethyl)benzamide], the pIC50 is 8.51.
For the molecule `CCN1CCN(c2cc(C(=O)Nc3cnc(C)c(-c4cc(N5CCOCC5)c(=O)n(C)c4)c3)cc(C(F)(F)F)c2)CC1` [Example 402, N-(1′,2-dimethyl-5′-morpholino-6′-oxo-1′,6′-dihydro-[3,3′-bipyridin]-5-yl)-3-(4-ethylpiperazin-1-yl)-5-(trifluoromethyl)benzamide], the pIC50 was 7.00.
For `Cc1ncc(NC(=O)c2ccnc(C(C)(C)C)c2)cc1-c1cc(N2CCOCC2)c(=O)n(C)c1` [Example 399, 2-(tert-butyl)-N-(1′,2-dimethyl-5′-morpholino-6′-oxo-1′,6′-dihydro-[3,3′-bipyridin]-5-yl)isonicotinamide], the pIC50 was 7.37.
As for `Cc1cn(-c2cc(NC(=O)c3ccc(C)c(-c4cc(N5CCOCC5)c(=O)n(C)c4)c3)cc(C(F)(F)F)c2)cn1` [Example 428, 4-methyl-N-(3-(4-methyl-1H-imidazol-1-yl)-5-(trifluoromethyl)phenyl)-3-(1-methyl-5-morpholino-6-oxo-1,6-dihydropyridin-3-yl)benzamide], the pIC50 is 8.00.
For the molecule `CCOc1ncc(-c2cc(NC(=O)c3cccc(S(C)(=O)=O)c3)cnc2C)cc1N1CCOCC1` [Example 242, N-(6′-ethoxy-2-methyl-5′-morpholino-[3,3′-bipyridin]-5-yl)-3-(methylsulfonyl)benzamide], the pIC50 is 8.41.
As for `Cc1ccc(NC(=O)c2cnnc(C3CC3)c2)cc1-c1cc(N2CCOCC2)c(=O)n(C)c1` [Example 362, 6-cyclopropyl-N-(4-methyl-3-(1-methyl-5-morpholino-6-oxo-1,6-dihydropyridin-3-yl)phenyl)pyridazine-4-carboxamide], the pIC50 is 8.54.
Still for that read-out and setting: the figure for `CCOc1ncc(-c2cc(NC(=O)c3ccnc(C(C)(C)C#N)c3)cnc2C)cc1N1CCOCC1` [Example 239, 2-(2-cyanopropan-2-yl)-N-(6′-ethoxy-2-methyl-5′-morpholino-[3,3′-bipyridin]-5-yl)isonicotinamide] is 8.25.

For the origin of these results see patent US9694016B2 (Novartis AG, priority 2013, dated 2017).
